One test has as its system Staphylococcus aureus. Nature of the test: Antibacterial activity against Staphylococcus aureus after 18 hr by broth microdilution technique. The format is functional.
In another test the test system is Enterococcus faecalis. Nature of the test: Antibacterial activity against Enterococcus faecalis after 18 hr by broth microdilution technique. Type of test: functional.
Another test deals with Bacillus subtilis. Nature of the test: Antibacterial activity against Bacillus subtilis after 18 hr by broth microdilution technique. The format is functional.
In the next test the test system is Klebsiella pneumoniae. Put plainly: Antibacterial activity against Klebsiella pneumoniae after 18 hr by broth microdilution technique. Type of test: functional. In general terms: Dilution methods test growth across graded concentrations, often in twofold steps.
In the next test the test system is Escherichia coli. Put plainly: Antibacterial activity against Escherichia coli after 18 hr by broth microdilution technique. The format is functional.
A further test deals with Pseudomonas aeruginosa. Put plainly: Antibacterial activity against Pseudomonas aeruginosa after 18 hr by broth microdilution technique. The format is functional.
The next test deals with Saccharomyces cerevisiae. Put plainly: Antifungal activity against Saccharomyces cerevisiae after 18 hr by broth microdilution technique. Type of test: functional.
The next test concerns Candida tropicalis. Nature of the test: Antifungal activity against Candida tropicalis after 18 hr by broth microdilution technique. Type of test: functional.
A further test deals with Aspergillus niger. Put plainly: Antifungal activity against Aspergillus niger after 18 hr by broth microdilution technique. Type of test: functional.
The subject of test [1] is Mycobacterium tuberculosis. Put plainly: Antimycobacterial activity against Mycobacterium tuberculosis H37Rv after 21 days by broth dilution method. Type of test: functional. As to conditions: 504 h.
A further test concerns Vero. Nature of the test: Cytotoxicity against Chlorocebus aethiops (African green monkey) Vero cells after 72 hr by MTT assay. Type of test: cell-based. As to conditions: Chlorocebus sabaeus. (In general: Formazan colour is commonly taken as a measure of viable cells.)
In the next test the test system is A549. Put plainly: Cytotoxicity against Homo sapiens (human) A549 cells after 72 hr by MTT assay. Type of test: cell-based. The settings on record: A549, 72 h.

As a reminder, the MIC is the lowest concentration that inhibits growth of the organism. One may read the IC50 as the concentration that inhibits the measured activity by half. The low end stands for greater potency in that assay, the high end for weaker potency in that assay.

Values after ≈ are worked out from the molar mass of the structure shown.

Take `Cc1ccc(C)n1-c1ccc(-c2nnc(S)o2)cc1`: the MIC in the test with Staphylococcus aureus worked out at 2 µg/mL (≈ 7.37 µM); in the test on Enterococcus faecalis, 4 µg/mL (≈ 14.7 µM); with Bacillus subtilis, 4 µg/mL (≈ 14.7 µM); against Klebsiella pneumoniae it was 62.5 µg/mL (≈ 230 µM); in the test on Escherichia coli, 62.5 µg/mL (≈ 230 µM); against Pseudomonas aeruginosa, 62.5 µg/mL (≈ 230 µM). The minimum inhibitory concentration (MIC) in the test with Saccharomyces cerevisiae was found to be 8 µg/mL (≈ 29.5 µM); against Candida tropicalis it was 2 µg/mL (≈ 7.37 µM); in the test with Aspergillus niger, 8 µg/mL (≈ 29.5 µM); in [1], 2 µg/mL (≈ 7.37 µM). In addition, the values for the half-maximal inhibitory concentration (IC50) in the test with Vero and in the test on A549 were 261 µM and 254 µM, respectively.
On to `CC(=O)N1N=C(c2ccc(-n3c(C)ccc3C)cc2)OC1c1ccccc1` (stereo not given), for which the MIC against Staphylococcus aureus is 62.5 µg/mL (≈ 174 µM); in the test on Enterococcus faecalis it was 62.5 µg/mL (≈ 174 µM); against Bacillus subtilis it was 16 µg/mL (≈ 44.5 µM); against Klebsiella pneumoniae, 62.5 µg/mL (≈ 174 µM); in the test with Escherichia coli, 500 µg/mL (≈ 1390 µM); in the test with Pseudomonas aeruginosa, 500 µg/mL (≈ 1390 µM). The minimum inhibitory concentration (MIC) against Saccharomyces cerevisiae is 62.5 µg/mL (≈ 174 µM); with Candida tropicalis, 16 µg/mL (≈ 44.5 µM); against Aspergillus niger, 31.2 µg/mL (≈ 86.9 µM); in test [1], 16 µg/mL (≈ 44.5 µM). For the same molecule, the figures for the IC50 with Vero and in the test on A549 were 190 µM and 198 µM, respectively.
`CC(=O)N1N=C(c2ccc(-n3c(C)ccc3C)cc2)OC1c1ccccc1Cl` (stereo not given): the MIC in the test on Staphylococcus aureus stood at 16 µg/mL (≈ 40.6 µM); with Enterococcus faecalis, 31.2 µg/mL (≈ 79.3 µM); in the test on Bacillus subtilis it was 8 µg/mL (≈ 20.3 µM); against Klebsiella pneumoniae it was 31.2 µg/mL (≈ 79.3 µM); against Escherichia coli it was 500 µg/mL (≈ 1270 µM); against Pseudomonas aeruginosa, 500 µg/mL (≈ 1270 µM). Moreover, the MIC came out at 31.2 µg/mL (≈ 79.3 µM) against Saccharomyces cerevisiae, 8 µg/mL (≈ 20.3 µM) against Candida tropicalis, 16 µg/mL (≈ 40.6 µM) in the test with Aspergillus niger and 8 µg/mL (≈ 20.3 µM) in test [1]. Also, the IC50 in the test on Vero was 201 µM; in the test on A549, 206 µM.
As for `Cc1ccc(C)n1-c1ccc(-c2n[nH]c(=S)n2N)cc1`, the minimal inhibitory concentration (MIC) against Staphylococcus aureus stood at 16 µg/mL (≈ 56.1 µM); against Enterococcus faecalis, 16 µg/mL (≈ 56.1 µM); in the test on Bacillus subtilis, 31.2 µg/mL (≈ 110 µM); against Klebsiella pneumoniae it was 500 µg/mL (≈ 1750 µM); against Escherichia coli, 500 µg/mL (≈ 1750 µM); against Pseudomonas aeruginosa, 500 µg/mL (≈ 1750 µM). The MIC turned out to be 4 µg/mL (≈ 14 µM) against Saccharomyces cerevisiae, 2 µg/mL (≈ 7.01 µM) in the test on Candida tropicalis, 4 µg/mL (≈ 14 µM) against Aspergillus niger and 4 µg/mL (≈ 14 µM) in test [1]. Besides, the values for the 50% inhibitory concentration (IC50) in the test on Vero and with A549 were 160 µM and 170 µM, respectively.
On to `CC(=O)NNC(=O)c1ccc(-n2c(C)ccc2C)cc1`, for which the minimum inhibitory concentration (MIC) was 31.2 µg/mL (≈ 115 µM) in the test with Staphylococcus aureus; 31.2 µg/mL (≈ 115 µM) against Enterococcus faecalis; 16 µg/mL (≈ 59 µM) with Bacillus subtilis; 500 µg/mL (≈ 1840 µM) in the test with Klebsiella pneumoniae; 500 µg/mL (≈ 1840 µM) in the test with Escherichia coli; 500 µg/mL (≈ 1840 µM) against Pseudomonas aeruginosa. Moreover, the MIC was 62.5 µg/mL (≈ 230 µM) against Saccharomyces cerevisiae, 62.5 µg/mL (≈ 230 µM) against Candida tropicalis, 62.5 µg/mL (≈ 230 µM) in the test with Aspergillus niger and 4 µg/mL (≈ 14.7 µM) in [1]. The half-inhibitory concentration (IC50) in the test with Vero was determined as 172 µM; with A549 it was 180 µM.

These data come from ChEMBL document CHEMBL3046206, “Synthesis of new 4-(2,5-dimethylpyrrol-1-yl)/4-pyrrol-1-yl benzoic acid hydrazide analogs and some derived oxadiazole, triazole and pyrrole ring systems: a novel class of potential antibacterial, antifungal and antitubercular agents” (Med Chem Res, 2013).
